The values that follow are results of earlier work, collected in paper PMC7493416 (ACS Sustainable Chemistry & Engineering, 2019).

The conditions of data set [1]: general statement, no reference given.

As to `O=C1CCCCCC1` [cycloheptanone], the Solubility in water entry in data set [1] is reported as “insoluble in water”.

Turning to `CN1CCCC1=O` [NMP, N-methylpyrrolidone], the Reproductive toxicity result is “display reproductive toxicity”.

`CN(C)C=O` [DMF, dimethylformamide]: the Reproductive toxicity entry was “display reproductive toxicity”.
